{"source": "paper PMC5111430", "about": "(ACS chemical biology, 2016)", "key": {"[1]": {"target": "Recombinant human Hsp70 and DnaJA2 (Homo sapiens, UniProt P0DMV8)", "sequence (P0DMV8 whole entry)": "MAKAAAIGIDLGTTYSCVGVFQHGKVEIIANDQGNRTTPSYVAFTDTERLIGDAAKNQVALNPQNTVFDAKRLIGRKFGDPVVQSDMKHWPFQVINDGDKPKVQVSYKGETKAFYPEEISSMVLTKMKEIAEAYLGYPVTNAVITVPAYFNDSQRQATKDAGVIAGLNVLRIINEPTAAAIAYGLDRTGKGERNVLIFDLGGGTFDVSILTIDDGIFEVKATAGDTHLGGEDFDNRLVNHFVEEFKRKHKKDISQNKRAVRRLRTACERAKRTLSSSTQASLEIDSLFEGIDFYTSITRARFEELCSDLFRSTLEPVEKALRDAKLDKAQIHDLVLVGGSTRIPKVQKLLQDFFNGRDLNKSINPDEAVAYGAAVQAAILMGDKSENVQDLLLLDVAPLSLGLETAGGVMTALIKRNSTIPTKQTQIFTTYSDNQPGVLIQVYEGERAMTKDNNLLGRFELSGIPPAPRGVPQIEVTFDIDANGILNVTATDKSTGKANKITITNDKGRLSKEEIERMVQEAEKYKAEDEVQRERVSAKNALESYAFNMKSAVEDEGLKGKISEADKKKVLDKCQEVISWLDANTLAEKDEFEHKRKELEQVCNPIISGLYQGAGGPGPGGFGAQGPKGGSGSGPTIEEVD", "experiment": "Hsp70 ATPase malachite green assay", "format": "biochemical", "settings": "1 µM Hsp70, 1 µM DnaJA2, 1 mM ATP, 30 min preincubation, 3 h"}, "HEK293T cells": {"tested_on": "HEK293T cells", "experiment": "LDH cytotoxicity assay", "format": "cell-based, human", "settings": "increasing concentrations, 24 h, relative to DMSO"}, "WT4R0N tau": {"tested_on": "WT4R0N tau", "format": "cell-based, human", "settings": "HEK293T, transient WT4R0N tau, 24 h; for effect on tau levels (tau aggregation inhibitor scaffolds): increasing concentrations; for effect on tau levels (Hsp70 inhibitor scaffolds): increasing concentrations up to 30 µM"}, "[2]": {"target": "4R0N human recombinant tau (Homo sapiens, UniProt P10636, P618L)", "sequence (P10636 1-383 isoform P10636-6 P243L)": "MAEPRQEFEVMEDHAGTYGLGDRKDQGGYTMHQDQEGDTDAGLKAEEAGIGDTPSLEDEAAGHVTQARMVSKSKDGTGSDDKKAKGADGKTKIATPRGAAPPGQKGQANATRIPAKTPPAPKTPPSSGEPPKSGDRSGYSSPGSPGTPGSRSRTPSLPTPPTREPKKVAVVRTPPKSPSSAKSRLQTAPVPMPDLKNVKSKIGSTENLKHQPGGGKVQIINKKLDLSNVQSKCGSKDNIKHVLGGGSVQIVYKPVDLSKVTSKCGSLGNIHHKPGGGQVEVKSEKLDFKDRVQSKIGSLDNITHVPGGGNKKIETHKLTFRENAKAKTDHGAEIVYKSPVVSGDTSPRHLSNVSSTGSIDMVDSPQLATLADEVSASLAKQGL", "experiment": "In vitro tau aggregation, thioflavin T fluorescence assay", "format": "biochemical", "settings": "for effect on tau aggregation levels in vitro: ThT fluorescence, heparin-induced, 24 h"}, "human recombinant tau": {"target": "human recombinant tau (Homo sapiens, UniProt P10636, P618L)", "sequence (P10636 1-383 isoform P10636-6 P243L)": "as above", "experiment": "Nondenaturing gel electrophoresis of ThT samples, high molecular weight tau", "format": "biochemical", "settings": "ThT samples incubated with 30 µM compound"}, "[3]": {"target": "recombinant human P301L tau (Homo sapiens, UniProt P10636, P618L)", "sequence (P10636 1-383 isoform P10636-6 P243L)": "as above", "experiment": "Hydrogen peroxide production assay", "format": "biochemical", "settings": "recombinant tau (10 µM) with 30 µM compound vs vehicle"}}, "data": [{"compound": "2-((Z)-5-((5-(3- chlorophenyl)furan -2-yl)methylene)-4-oxo-2- thioxothiazolidin-3- yl)ethanoic acid [rhodanine]", "values": [{"measurement": "Hsp70 ATPase activity", "setting": "[1]", "result": "inhibited Hsp70 ATPase activity"}]}, {"compound": "2-Phenylethynesulfonamide", "values": [{"measurement": "LDH cytotoxicity", "setting": "HEK293T cells", "result": "high toxicity relative to the other compounds"}]}, {"compound": "Nc1scc2c(C(=O)NC3CC3)nn(-c3ccc(Cl)cc3)c(=O)c12", "note": "[ATPZ, 5-amino-3-(4-chlorophenyl)-N-cyclopropyl-4-oxo-3,4-dihydrothieno[3,4-d]pyridazine-1-carboxamide]", "values": [{"measurement": "effect on tau levels (tau aggregation inhibitor scaffolds)", "setting": "WT4R0N tau", "result": "did not lead to tau lowering"}]}, {"compound": "N#Cc1ccc(COC[C@H]2O[C@@H](n3c(NCc4ccc(Cl)c(Cl)c4)nc4c(N)ncnc43)[C@H](O)[C@@H]2O)cc1", "note": "[adenosine analog, 5'-O-[(4-Cyanophenyl)methyl]-8-[[(3,4-dichlorophenyl)methyl]amino]-adenosine]", "values": [{"measurement": "effect on tau aggregation levels in vitro", "setting": "[2]", "result": "increased tau aggregation levels"}, {"measurement": "effect on tau levels (Hsp70 inhibitor scaffolds)", "setting": "WT4R0N tau", "result": "increased tau levels"}]}, {"compound": "O=C1c2ccc(O)c(O)c2C(=O)c2c(O)ccc(O)c21", "note": "[anthraquinone, 1,2,5,8-Tetrahydroxy-9,10-anthraquinone, 1,2,5,8-Tetrahydroxyanthraquinone]", "values": [{"measurement": "effect on tau levels at 30 µM", "setting": "WT4R0N tau; 30 µM", "result": "effectively lowered tau levels"}, {"measurement": "effect on tau levels (tau aggregation inhibitor scaffolds)", "setting": "WT4R0N tau", "result": "lowered tau levels"}]}, {"compound": "CC1=C(C(=O)OCc2ccccc2)C(c2ccc(-c3ccccc3)cc2)NC(=O)N1CCCCCC(=O)O", "note": "(centres unmarked) [dihydropyrimidine, 4-[1,1'-Biphenyl]-4-yl-3,4-dihydro-6-methyl-2-oxo-5-[(phenylmethoxy)carbonyl]-1(2H)-pyrimidinehexanoic acid]", "values": [{"measurement": "IC50", "setting": "[2]", "result": 22.7, "unit": "µM"}]}, {"compound": "CN(C)c1ccc2nc3ccc(N(C)C)cc3[s+]c2c1.[Cl-]", "note": "[phenothiazine, 3,7-bis(Dimethylamino)phenazat hionium chloride]", "values": [{"measurement": "effect on high molecular weight tau", "setting": "human recombinant tau", "result": "most potently reduced high molecular weight tau"}]}, {"compound": "CCCn1c(NC(=O)[C@H]2CCCN(c3cnccn3)C2)nc2ccccc21", "note": "[piperidine-3-carboxamide, (S)-N-(1-propyl-1H-benzimidazol-2-yl)-1-(2-pyrazinyl)piperidine-3-carboxamide]", "values": [{"measurement": "effect on tau aggregation levels in vitro", "setting": "[2]", "result": "increased tau aggregation levels"}, {"measurement": "effect on tau levels (Hsp70 inhibitor scaffolds)", "setting": "WT4R0N tau", "result": "increased tau levels"}]}, {"compound": "CCn1c(=O)/c(=C2\\Sc3cc(Cl)ccc3N2C)s/c1=C\\c1scc[n+]1Cc1ccccc1.[Cl-]", "note": "[rhodacyanine, 3-benzyl-2-((Z)-((E)-5-(6-chloro-3-methylbenzo[d]thiazol-2(3H)-ylidene)-3-ethyl-4-oxothiazolidin-2-ylidene)methyl)thiazol-3-ium chloride]", "values": [{"measurement": "production of hydrogen peroxide", "setting": "[3]", "result": "no significant differences"}, {"measurement": "effect on high molecular weight tau", "setting": "human recombinant tau", "result": "most potently reduced high molecular weight tau"}, {"measurement": "IC50", "setting": "[2]", "result": 0.813, "unit": "µM"}]}]}
